{"source": "patent US6372884B1", "about": "“Biologically active compounds and methods of constructing and using the same” (priority 1987, dated 2002)", "key": {"[1]": {"tested_on": "Reo3R", "assay": "Inhibition of 125I-labelled reovirus type 3 binding to the Reo3R on cells", "experimental": "The cells were centrifuged and washed twice in 1% BSA/PBS/0.1% NaN3. 5×10^4 cells or 1.25×10^6 R1.1 cells in 50 μl were distributed in 2% BSA/PBS/NaN3 blocked RIA wells. For peptide studies, 50 μl of inhibitor was added in dH2O to the cells. Following a 30 minute incubation, L cells and ^125I-labelled reovirus type 3 were combined for an additional 30 minutes at 37° C. The cells were spun, washed three times in ice cold PBS, and specific CPM bound was determined as noted above. Percent inhibition of binding was calculated by the formulae above.\nTo further evaluate the interaction of VLC9C16 peptide with the Reo3R, the peptide was utilized to compete with ^125I-labelled reovirus type 3 for binding to the Reo3R."}, "[2]": {"assay": "Size-exclusion chromatography of oxidized peptides (Sephadex G-10)", "assay_type": "physicochemical", "details": "reduced versus non-reduced peptides"}, "[3]": {"tested_on": "reovirus type 3 receptor (Reo3R)", "assay": "Flow cytometry: inhibition of 87.92.6 binding to cells", "set-up": "species or system murine", "details": "FIG. 29", "experimental": "The ability of peptides to inhibit antibody binding to cells was determined by preincubation of the cells with varying amounts of inhibitor (in 100 μl dH2O) for between 30 minutes and 1 hour at 23° C. Cells (either L cells or R1.1 cells) were washed in 1% BSA/PBS/0.1% NaN3, and resuspended at 10^7/ml. 100 μl of cells were then added in 1% BSA/PBS/0.1% NaN3, and the incubation continued for 20-30 minutes. Antibodies (5 or 10 μl were added for an additional 20 minutes at 23° C. Ice cold 1% BSA/PBS/0.1% NaN3, was added, the cells centrifuged and washed prior to counterstaining with a 1:100 dilution of FITC goat anti-mouse Ig (Fisher Scientific) in 1% BSA/PBS/0.1% NaN3. The cells were washed twice and fluorescence intensity determined. Inhibition of binding was calculated as noted above with mean channel number utilized in place of CPM.\nTo assess the affinity of the cyclic peptides for the reovirus type 3 receptor (Reo3R), they were utilized in a series of assays to inhibit binding of 87.92.6 or control antibodies to specific receptors. […] The inhibition by VLC9C16 peptide was specific as binding of isotype matched monoclonal H013.4 to Thy2 molecules was not inhibited by VLC9C16 peptide (FIG. 30). Thus, VLC9C16 peptide is a specific Reo3R ligand with enhanced affinity compared with its linear analog."}, "[4]": {"tested_on": "9B.G5", "assay": "Competitive RIA: inhibition of 9B.G5 - reovirus type 3 interaction", "assay_type": "binding"}, "[5]": {"assay": "Rate of loss of sulfhydryls on air oxidation (Ellman determination)", "assay_type": "physicochemical", "details": "2 mg/ml in 0.1 M NaHCO3, 37° C., exposed to air, FIG. 23"}, "[6]": {"tested_on": "9B.G5", "assay": "Competitive RIA: inhibition of 9B.G5 - 87.92.6 interaction", "assay_type": "binding"}, "[7]": {"target": "T1, Thy2 molecules (Mus musculus, UniProt P01831)", "T1 sequence (P01831 20-131)": "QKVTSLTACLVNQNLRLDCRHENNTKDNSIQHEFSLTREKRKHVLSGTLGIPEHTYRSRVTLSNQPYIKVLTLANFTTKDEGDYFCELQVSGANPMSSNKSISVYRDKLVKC", "assay": "Flow cytometry: inhibition of H013.4 binding (specificity)", "set-up": "species or system murine", "details": "FIG. 30"}, "[8]": {"tested_on": "9B.G5", "assay": "Solid phase RIA: binding of 9B.G5 to peptide coated plates", "details": "FIG. 24", "experimental": "RIA plates (Dynatech Laboratories, Alexandria, Va.) were coated with peptides by evaporation of varying amounts of peptides in distilled water overnight at 37° C. The wells were washed with PBS, blocked with 2% bovine serum albumin (BSA) in PBS with 0.1% NaN3, and washed with PBS. Partially purified 9BG5 [(NH4)2SO4 precipitate] was added at varying dilutions for greater than 1 hour at 37° C. The wells were washed in PBS and 50,000-100,000 counts per minute of ^125I-labelled goat anti-mouse light chain (anti-k & anti-[Sigma] iodinated by chloramine T) was added per well in 1% BSA in PBS for 1-2 hours at 37° C. The wells were decanted, washed extensively, and CPM bound determined. Specific CPM bound was determined by subtracting the CPM bound to uncoated wells from the CPM bound to peptide coated wells.\nTo assess the optimal conformation for binding of the VL peptide analogs, they were utilized to coat radioimmunoassay (RIA) plates, and 9B.G5 bound by standard RIA procedures."}}, "note": "Ends that are not written are not given here.", "data": [{"sequence": "KPGKTNKLCIYSGSTCQ (cysteine pairing not given here) [VLC9C16 peptide]", "values": [{"measurement": "affinity for the Reo3R by competition with 125I-labelled reovirus type 3", "setting": "[1]; FIG. 31", "result": "higher affinity for the Reo3R than VLC8C16 peptide or VLC10C16 peptide"}, {"measurement": "increase in affinity for the Reo3R compared with linear VL peptide", "setting": "[1]; competition with 125I-labelled reovirus type 3", "result": 40, "unit": "fold"}, {"measurement": "molecular form following oxidation by size-exclusion chromatography", "setting": "[2]", "result": "remained chiefly as monomers"}, {"measurement": "inhibition of binding of 87.92.6 to murine L cells", "setting": "[3]; L cells", "result": "inhibited binding"}, {"measurement": "inhibition of binding of 87.92.6 to R1.1 thymoma cells", "setting": "[3]; R1.1 cells", "result": "inhibited binding"}, {"measurement": "inhibition of binding of 125I-labelled reovirus type 3 to 9B.G5, compared with other cyclic peptides", "setting": "[4]; FIG. 27", "result": "higher affinity than the other cyclic peptides"}, {"measurement": "inhibition of binding of 125I-labelled reovirus type 3 to 9B.G5, compared with linear VL and dimeric VLSH peptide", "setting": "[4]; FIG. 28", "result": "higher affinity than linear VL peptide, and similar affinity on a molar basis as dimeric VLSH peptide"}, {"measurement": "rate of loss of sulfhydryls", "setting": "[5]", "result": "most rapid loss of sulfhydryls"}, {"measurement": "increase in binding affinity for 9B.G5 compared with linear analog of VL peptide", "setting": "[6]; inhibition of 9B.G5 - 87.92.6 interaction, FIG. 26", "result": 40, "unit": "fold"}, {"measurement": "inhibition of 9B.G5 - 87.92.6 interaction", "setting": "[6]; liquid phase assay, FIGS. 25 and 26", "result": "higher affinity of interaction compared with the other cyclic peptide variants"}, {"measurement": "inhibition of binding of isotype matched monoclonal H013.4", "setting": "[7]", "result": "not inhibited"}, {"measurement": "binding of 9B.G5 to peptide on solid phase RIA", "setting": "[8]", "result": "higher than binding to the other cyclic VL peptide analogs"}]}]}
